Measurements reported in patent US20190255073A1, “ESTERS OF 3-POLYAMINE DERIVATIVES OF BILE ACIDS FOR THE TREATMENT OF INFECTIONS” (VIRBAC, priority 2016, published 2019).
≈ marks a conversion by molar mass, not a printed value. Where two headings read alike, the source gives them in different places.

Assays:
P. aeruginosa ATCC27853 = experiment: MIC determination by microplate dilution, P. aeruginosa human strain; type: cell-based, Pseudomonas aeruginosa; conditions: Mueller-Hinton medium, 24 h, 37° C.; for MIC: Pseudomonas aeruginosa, ATCC27853, Gram-negative
Outline: (§1)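 Strains precultured in Mueller-Hinton broth 24 h at 37 °C; compounds from 5 mg/mL stocks in DMSO/methanol 50/50, twofold serial dilution in 96-well plates, inoculum set to OD 0.01. Incubated 24 h at 37 °C, humid; OD read at 620 nm to derive MIC, duplicates.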

S. intermedius (1051997) = experiment: MIC determination by microplate dilution, S. intermedius animal strain; type: cell-based, Staphylococcus intermedius; conditions: Gram-positive, Mueller-Hinton medium, 24 h, 37° C.; for MIC: Staphylococcus intermedius
Outline: as §1

E. coli ATCC28922 = experiment: MIC determination by microplate dilution, E. coli human strain; type: cell-based, Escherichia coli; conditions: Mueller-Hinton medium, 24 h, 37° C.; for MIC: Escherichia coli, ATCC28922, Gram-negative
Outline: as §1

S. aureus (340) = experiment: MIC determination by microplate dilution, S. aureus animal strain; type: cell-based, Staphylococcus aureus; conditions: Gram-positive, Mueller-Hinton medium, 24 h, 37° C.; for MIC: Staphylococcus aureus
Outline: as §1

C. albicans = experiment: Antifungal activity, cascade microdilution, C. albicans; type: cell-based, Candida albicans; conditions: 24 h; for IC50: Candida albicans, read-out: IC50 (μg/mL) C. albicans
E. coli (1956) = experiment: MIC determination by microplate dilution, E. coli animal strain; type: cell-based, Escherichia coli; conditions: Gram-negative, Mueller-Hinton medium, 24 h, 37° C.; for MIC: Escherichia coli
Outline: as §1

E. faecalis ATCC29212 = experiment: MIC determination by microplate dilution, E. faecalis human strain; type: cell-based, Enterococcus faecalis; conditions: Mueller-Hinton medium, 24 h, 37° C.; for MIC: Enterococcus faecalis, ATCC29212, Gram-positive
Outline: as §1

S. aureus ATCC25923 = experiment: MIC determination by microplate dilution, S. aureus human strain; type: cell-based, Staphylococcus aureus; conditions: Mueller-Hinton medium, 24 h, 37° C.; for MIC: Staphylococcus aureus, ATCC25923, Gram-positive
Outline: as §1

P. aeruginosa (1051575) [1] = experiment: Potentiation of the doxycycline activity at 2 μg/mL; type: cell-based, Pseudomonas aeruginosa; conditions: in combination with doxycycline 2 μg/mL; 24 h, 37°
CHO-K1 cells = experiment: WST1 cytotoxicity test on CHO-K1 cells; type: cell-based, Chinese hamster; conditions: for IC50: Cricetulus griseus
Outline: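 CHO-K1 cells seeded 24 h, then exposed to increasing compound concentrations in duplicate for 24 h at 37 °C, 5% CO2. Viability by WST-1 reduction (20 min, 37 °C), absorbance at 450 nm. IC50 = concentration reducing viability by 50%, from nonlinear regression of dose-response.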

P. aeruginosa (1051575) [2] = experiment: MIC determination by microplate dilution, P. aeruginosa animal strain; type: cell-based, Pseudomonas aeruginosa; conditions: Gram-negative, Mueller-Hinton medium, 24 h, 37° C.; for MIC: Pseudomonas aeruginosa
Outline: as §1

P. aeruginosa (1051575) [3] = experiment: Potentiation of erythromycin activity; type: cell-based, Pseudomonas aeruginosa; conditions: concentration of compound required with erythromycin 2 μg/mL
Experimental: (§2) This method requires the use of a 96-well plate: 100 μL of a liquid culture medium are placed in each well and then seeded with the microbial suspension prepared previously. The required volume to be seeded is calculated for an OD of 0.01, which corresponds to about 5×10^6 bacteria in each well. In this plate, the first line corresponds to a negative control (200 μL of sterile culture medium in each well), the second line corresponds to a positive control (100 μL of sterile culture medium+100 μL of the bacterial suspension), and the third line contains 192 μL of culture medium; 8 μL of compound of formula (I) to be tested are placed in each well. Thereafter, a cascade dilution is performed from this line. μL of a doxycycline solution (1 mg dissolved in 20 mL) are then added to each well of the lines 3 to 8 to obtain a final antibiotic concentration of 2 μg/mL. 92 μL of bacterial suspension are then added to lines 3 to 8. […] After 24 hours of incubation at 37° C., 40 μL of nitro tetrazolium iodide are added to each well to reveal the presence of live bacteria by staining the medium pink.
The procedure is identical to that indicated in Example 5 above. 8 μL of an antibiotic solution under consideration (1 mg dissolved in 20 mL) are added to obtain a final antibiotic concentration of 2 μg/mL instead of 8 μL of a doxycycline solution.
(§3) The results are given in table V. They indicate the concentration of compound of formula (I) required to be able to restore the activity of the antibiotic under consideration.

P. aeruginosa (1051575) [4] = experiment: Potentiation of chloramphenicol activity; type: cell-based, Pseudomonas aeruginosa; conditions: concentration of compound required with chloramphenicol 2 μg/mL
Experimental: as §2, with “Thereafter, a cascade dilution is performed from this line. μL of a doxycycline solution (1 mg dissolved in 20 mL) are then added to each well of the lines 3 to 8 to obtain a final antibiotic concentration of 2 μg/mL.” left out
The procedure is identical to that indicated in Example 5 above. […]
as §3

[5] = CHO-K1, 24 h, read-out: IC50 (μg/mL) CHO
[6] = CHO-K1, read-out: IC50 (μg/mL) CHO

For “methyl 3β-(bis(3-aminopropyl)methylamine)ursodeoxycholate [(53)]”, the “MIC P. aeruginosa Human ATCC27853” value (P. aeruginosa ATCC27853; Gram-negative) was 55 µg/mL, the “MIC S. intermedius Animal (1051997)” value (S. intermedius (1051997)) was 7 µg/mL and the “MIC E. coli Human ATCC28922” value (E. coli ATCC28922; Gram-negative) was 55 µg/mL. For the same compound, the “MIC S. aureus Animal (340)” value (S. aureus (340)) was 27 µg/mL, the “IC50 (μg/mL) C. albicans” value (C. albicans; compounds as hydrochloride in water, MH medium) was 3 µg/mL and the “MIC E. coli Animal (1956)” value (E. coli (1956)) was 55 µg/mL. The “MIC E. faecalis Human ATCC29212” value (E. faecalis ATCC29212; Gram-positive) was 55 µg/mL, the “MIC S. aureus Human ATCC25923” value (S. aureus ATCC25923; Gram-positive) was 27 µg/mL and the “MIC - P. aeruginosa (1051575): content of compound of formula (I) to restore the doxycycline activity (at 2 μg/mL)” value (“MIC - P. aeruginosa (1051575): content” for short) (P. aeruginosa (1051575) [1]) was 7 µg/mL. The “IC50 (μg/mL) CHO” value (CHO-K1 cells; CHO (Example 7)) was 50 µg/mL, the “IC50 (μg/mL) CHO” value (CHO-K1 cells; Table III, WST1, CHO-K1 cells, 24 h, concentration reducing cell viability by 50%) was 50 µg/mL and the “MIC P. aeruginosa Animal (1051575)” value (P. aeruginosa (1051575) [2]) was 55 µg/mL.
`CC(C)OC(=O)CC[C@@H](C)[C@H]1CCC2C3CCC4C[C@@H](NCCCNCCCN)CC[C@]4(C)C3CC[C@@]21C` (stereo partly drawn) [(16), isopropyl 3β-norspermidinolithocholate] was tested, and the MIC (P. aeruginosa ATCC27853) was 7 µg/mL (≈ 13.2 µM), the MIC (S. intermedius (1051997)) was 7 µg/mL (≈ 13.2 µM) and the MIC (E. coli ATCC28922) was 14 µg/mL (≈ 26.3 µM). It also gave an MIC (S. aureus (340)) of 3.5 µg/mL (≈ 6.58 µM), an IC50 (C. albicans) of 2 µg/mL (≈ 3.76 µM) and an MIC (E. coli (1956)) of 7 µg/mL (≈ 13.2 µM). For the same compound, the MIC (E. faecalis ATCC29212) was 3.5 µg/mL (≈ 6.58 µM), the MIC (S. aureus ATCC25923) was 3.5 µg/mL (≈ 6.58 µM) and the “MIC - P. aeruginosa (1051575): content” value (P. aeruginosa (1051575) [1]) was 3 µg/mL. The IC50 (CHO-K1 cells; [5]) was 13 µg/mL (≈ 24.4 µM), the IC50 (CHO-K1 cells; [6]) was 13 µg/mL (≈ 24.4 µM) and the MIC (P. aeruginosa (1051575) [2]) was 3.5 µg/mL (≈ 6.58 µM).
For `CC(C)OC(=O)CC[C@@H](C)[C@H]1CCC2C3CCC4C[C@@H](NCCN(CCN)CCN)CC[C@]4(C)C3CC[C@@]21C` (stereo partly drawn) [(48), isopropyl 3β-(tris(2-aminoethyl)amine)lithocholate], the MIC (S. intermedius (1051997)) was 7 µg/mL (≈ 12.8 µM), the “MIC P. aeruginosa (1051575), compound + erythromycin” value (P. aeruginosa (1051575) [3]) was 55 µg/mL and the “MIC P. aeruginosa (1051575), compound + chloramphenicol” value (P. aeruginosa (1051575) [4]) was 7 µg/mL.
In the case of `CC(C)OC(=O)CC[C@@H](C)[C@H]1CCC2C3C(CC[C@@]21C)[C@@]1(C)CC[C@H](NCCN(CCN)CCN)CC1C[C@@H]3O` (stereo partly drawn) [(43), isopropyl 3β-(tris(2-aminoethyl)amine)ursodeoxycholate], the MIC (S. intermedius (1051997)) is reported as 7 µg/mL (≈ 12.4 µM), the MIC (E. coli (1956)) is reported as 56 µg/mL (≈ 99.5 µM) and the “MIC P. aeruginosa (1051575), compound + erythromycin” value (P. aeruginosa (1051575) [3]) is reported as 28 µg/mL. It also gave an MIC (P. aeruginosa (1051575) [2]) of 14 µg/mL (≈ 24.9 µM).
Work on `COC(=O)CC[C@@H](C)[C@H]1CCC2C3CCC4C[C@@H](NCCNCCNCCNCCN)CC[C@]4(C)C3C[C@H](O)[C@@]21C` (stereo partly drawn) [(19), methyl 3β-(tetraethylenepentamine)deoxycholate] yielded an MIC (P. aeruginosa ATCC27853) of 15 µg/mL (≈ 26 µM), an MIC (S. intermedius (1051997)) of 7 µg/mL (≈ 12.1 µM) and an MIC (E. coli ATCC28922) of 7 µg/mL (≈ 12.1 µM). The MIC (S. aureus (340)) was 7 µg/mL (≈ 12.1 µM), the IC50 (C. albicans) was 4 µg/mL (≈ 6.92 µM) and the MIC (E. coli (1956)) was 29 µg/mL (≈ 50.2 µM). For the same compound, the MIC (E. faecalis ATCC29212) was 7 µg/mL (≈ 12.1 µM), the MIC (S. aureus ATCC25923) was 4 µg/mL (≈ 6.92 µM) and the “MIC - P. aeruginosa (1051575): content” value (P. aeruginosa (1051575) [1]) was 4 µg/mL. It also gave an IC50 (CHO-K1 cells; [5]) of 40 µg/mL (≈ 69.2 µM), an IC50 (CHO-K1 cells; [6]) of 40 µg/mL (≈ 69.2 µM) and an MIC (P. aeruginosa (1051575) [2]) of 7 µg/mL (≈ 12.1 µM).
In the case of `CC(C)OC(=O)CC[C@@H](C)[C@H]1CCC2C3CCC4C[C@@H](NCCNCCNCCNCCNCCN)CC[C@]4(C)C3C[C@H](O)[C@@]21C` (stereo partly drawn) [(27), isopropyl 3β-(pentaethylenehexamine)deoxycholate], the MIC (P. aeruginosa ATCC27853) is reported as 65 µg/mL (≈ 100 µM), the MIC (S. intermedius (1051997)) is reported as 16 µg/mL (≈ 24.7 µM) and the MIC (E. coli ATCC28922) is reported as 32 µg/mL (≈ 49.3 µM). The MIC (S. aureus (340)) was over 130 µg/mL, the IC50 (C. albicans) was 4 µg/mL (≈ 6.16 µM) and the MIC (E. coli (1956)) was 65 µg/mL (≈ 100 µM). The MIC (E. faecalis ATCC29212) was 32 µg/mL (≈ 49.3 µM), the MIC (S. aureus ATCC25923) was 16 µg/mL (≈ 24.7 µM) and the “MIC - P. aeruginosa (1051575): content” value (P. aeruginosa (1051575) [1]) was 8 µg/mL. For the same compound, the IC50 (CHO-K1 cells; [6]) was 110 µg/mL (≈ 169 µM) and the MIC (P. aeruginosa (1051575) [2]) was 65 µg/mL (≈ 100 µM).
